Converted amounts (≈) assume the structure as drawn.
Experiments:
B. cinerea = system: B. cinerea; design: method as in PMID 18331796; conditions: cited from earlier work
B. cinerea mycelia = test: mycelial electrolyte leakage (conductivity of mycelia suspension); type: cell-based, Botrytis cinerea; conditions: 50 μg/mL; for conductivity of mycelia suspension compared with control mycelia: all treatment times 0-100 h
Protocol: Mycelial discs (5 mm in diameter) of B. cinerea grown on PDA plates were cut from the colony’s margins and placed in PDA liquid medium with 200 r/min shaking for 3 days. The mycelia in the culture medium were collected and washed three times by sterile distilled water and subsequently, filtered and weighed. A stock solution of L13 and commercial fungicide procymidone as a positive control were diluted with sterile distilled water to 50 μg/mL, respectively. After adding 1.0 g of fresh mycelia into different solutions mentioned above, the conductivities of the solutions were measured using the DDS-11C model conductivity detector at 0, 1, 3, 5, 24, 28, 40, 48, 52, 64, 68, 72, 76, 88, 92, and 100 h after treatment. The experiment was repeated twice with three replicates per treatment.

[1] = system: B. cinerea resistant to diethofencarb (HM-2); test: greenhouse pot test on tomato, diethofencarb-resistant strain HM-2; type: in vivo, Botrytis cinerea
Protocol: (§1) The B. cinerea strains, which had resistance to carbendazim (HM-1), diethofencarb (HM-2), and iprodione (HM-3) for greenhouse pot studies, were provided by the Institute of Vegetables and Flowers, Chinese Academy of Agricultural Sciences (Beijing, China).
(§2) The experiments were conducted in the greenhouse of the Institute of Vegetables and Flowers, Chinese Academy of Agricultural Sciences. The maximum and minimum temperatures of the greenhouse were 29 °C and 19 °C, respectively, and the average temperature was 24 °C. B. cinerea strains showing resistance to carbendazim, diethofencarb, and iprodione were cultivated on potato dextrose agar (PDA) plates for 4–5 d at room temperature. Tomato seeds (Ziyu) were sown in ceramic pots (300 mm in diameter) containing 0.6 kg of soil sterilized with formaldehyde (4–5 seeds for each pot). When plants were grown to the five-leaf stage, an aqueous solution of 25% L13 WP (at dilution multiples of 1000 and 2000 times) was sprayed preventatively on the plant surface. […] The severity of the disease was assessed according to a nine-grade classification at 7 d after inoculation, by which time the disease in the untreated control had fully developed.

Wistar rats = test: acute oral toxicity; type: in vivo
Protocol: (§3) The acute oral and dermal toxicity test on Wistar rats, eye and skin irritation test on rabbits, and Ames mutagenicity test were commissioned by the Institute for the Control of Chemical Toxicity in Tianjin. The bone marrow cell micronucleus assay and testis chromosomal aberration test of mice were commissioned by Tianjin Center for Disease Control and Prevention. All the toxicological tests were carried out according to the Toxicological Test Methods for Pesticide Registration (GB 15670-1995).
(§4) Based on the preliminary experiment, Horn’s method was used to determine the acute oral toxicity of L13. The dosage applied for rats was 464, 1000, 2150, and 4640 mg/kg·BW. For the acute dermal toxicity test, the dosage applied for rats was 2000 mg/kg·BW. For the eye and skin irritation test, rabbits with bodyweight from 2.5 to 3.0 kg were used, and 0.1 and […] of L13 was applied to the eyes and skin, respectively. For the Ames mutagenicity test, 0.05–1.0 mg per dish of L13 was applied, and fenaminosulf (50 μg/dish), 2-aminofluorene (20 μg/dish), and 1,8-dihydroxyanthraquinone (50 μg/dish) were used as the positive controls. For the mouse bone marrow cell micronucleus assay, the dosages applied were 165, 82.5, 41.3, and 8.3 mg/kg·BW, and cyclophosphamide (60 mg/kg·BW) was used as a positive control. […]

rabbits [2] = test: eye irritation test; type: in vivo
Protocol: as §3, §4

B. cinerea on tomatoes = test: field efficacy trials against tomato gray mold; type: in vivo, Botrytis cinerea; conditions: Yuncheng city; 225 g ai ha^−1; over 2 years
Protocol: The field efficacy trials of L13 against tomato gray mold were conducted in two locations of Yuncheng, Shanxi Province, and Gaocheng, Hebei Province. The experiments were conducted according to the National Agriculture Industry Standard of “Pesticide-guidelines for the field efficacy trials (I)-Fungicides against gray mold of vegetables” [38]. Tomato Jinpeng No. 1 was used as the experimental cultivar. There were six treatments in each trial, and the area of each plot was 5 × 3 m with four replications (24 plots). When tomato plants were grown to the five-leaf stage, an aqueous solution of L13 50% WP at a rate of 450 and 225 g ai ha^−1 was sprayed onto the plants using a hydraulic knapsack electric sprayer (CD-16B, Chaoda Instrument Co., Ltd., Taizhou, China) with a single cone nozzle operating at a typical working pressure 0.3 MPa. Iprodione 50% WP, or iprodione 25% SC at a rate of 225 and 562.5 g ai ha^−1 were used as positive controls. Three applications were conducted at an interval of 7 d. The disease was assessed according to a nine-grade classification 7 d after the last application.

B. cinerea hyphae = test: SEM and TEM of mycelial morphology and ultrastructure; type: cell-based, Botrytis cinerea; conditions: 3 days
Protocol: B. cinerea mycelial tips (5 mm) from the margins of the actively growing colony on the PDA medium amended with 0, 50, and 100 μg/mL of L13 were cut down after being cultured for 3 days. Then the mycelial tips were treated with 4% glutaraldehyde at 4 °C, then rinsed with 0.1 M phosphate buffer (pH 7.3) and fixed with 1% w/v osmium tetraoxide solution. After being rinsed with 0.1 M phosphate buffer three times, the mycelium block was dehydrated using a series of acetone solutions in the order of concentration: 30%, 50%, 70%, 80%, 90%, and anhydrous acetone. The processes of drying at a critical point, mounting, and gold spraying were completed at last and examined in a scanning electron microscope (S-3400N, Hitachi, Nissei Sanyo, Tokyo, apan) with an accelerating voltage of 18–20 kV.
The mycelial blocks were prepared according to the method given in Section 2.3. After dehydrating and embedding in Epon 112, thin sections were cut and double-stained with uranyl acetate and lead citrate. The grids were examined with a JEOL-1230 (JEOL, Tokyo, Japan) transmission electron microscope.

rabbits [3] = test: skin irritation test; type: in vivo
Protocol: as §3, §4

[4] = system: intact mycelia of B. cinerea; design: method as in earlier work; conditions: cited from earlier work
[5] = system: intact mycelia of B. cinerea; test: mycelial respiration (oxygen consumption of intact mycelia); type: cell-based, Botrytis cinerea; conditions: 25 °C; for R1 (mycelial oxygen uptake post addition of fungicide): R0 173.51; for inhibition at 50 µg/mL / inhibition at 100 µg/mL: Botrytis cinerea, read-out: IR (inhibition of respiration)
Protocol: Mycelial plugs of B. cinerea from 3 days old colony margins were transferred to conical flasks containing 150 mL of PDA liquid medium for shake culture (25 °C, 150 r/min). After 5 days, mycelia were washed three times with 50 mM potassium phosphate buffer (pH 7.2) and resuspended in 0.1 M phosphate buffer (pH 7.2), containing 2% glucose to afford mycelial suspension at a concentration of 50 mg fresh weight of mycelia per milliliter. The mycelial suspension was treated with 50 and 100 μg/mL of L13 and famoxadone, respectively. All measurements were carried out at 25 ± 1 °C. The ratio of the mycelial oxygen consumption was tested by oxygraphy (DW1, Hansatech Instruments Ltd., England), and the inhibition of respiration was calculated using the following formula:IR = (R0 − R1)/R0 × 100(1)
IR: inhibition of respiration (%); R0, R1: the ratio of mycelial oxygen uptake pre and post addition of fungicides (nmol O2/min/mg mycelia).

[6] = system: B. cinerea resistant to carbendazim (HM-1); test: greenhouse pot test on tomato, carbendazim-resistant strain HM-1; type: in vivo, Botrytis cinerea
Protocol: as §1, §2

mutagenesis test = test: mutagenesis test
Protocol: as §3, §4

[7] = system: B. cinerea resistant to iprodione (HM-3); test: greenhouse pot test on tomato, iprodione-resistant strain HM-3; type: in vivo, Botrytis cinerea
Protocol: as §1, §2

[8] = dilution multiple 1000, 187.5 g.ai ha^−1

For `CC12CC1(C)C(=O)N(c1cc(Cl)cc(Cl)c1)C2=O` (stereo not drawn) [procymidone, reference compound], the “EC50 against B. cinerea” value (B. cinerea) is listed as 2.45 µg/mL (≈ 8.62 µM) and the “conductivity of mycelia suspension compared with control mycelia” value (B. cinerea mycelia) is listed as “greatly increased”.
In the case of `O=C1CCCCC1S(=O)(=O)Nc1ccc(Cl)cc1C(F)(F)F` (stereo not drawn) [L13, N-(2-trifluoromethyl-4-chlorphenyl)-2-oxocyclohexyl sulfonamide], the Teratogenesis (teratogenesis test) is reported as “Negative”, the “Control Effect” value [1, 8] is reported as 92.61% and the “Acute oral LD50” value (Wistar rats; female) is reported as 2150 mg/kg·BW. The “Acute oral LD50” value (Wistar rats; male) was 1470 mg/kg·BW, the Eye irritation (rabbits [2]) was “No irritation” and the “control effect against B. cinerea on tomatoes” value (B. cinerea on tomatoes) was 72–76%. The “TEM ultrastructure of hyphae” value (B. cinerea hyphae; PDA with 50 μg/mL) was “cell wall exhibited a decomposition trend”, the “TEM ultrastructure of hyphae” value (B. cinerea hyphae; PDA with 100 μg/mL) was “cell wall decomposition” and the Skin irritation (rabbits [3]) was “No irritation”. For the same compound, the “content of DNA and polysaccharide in intact mycelia” value [4] was “reduce the content of the DNA and polysaccharide”, the “R1 (mycelial oxygen uptake post addition of fungicide)” value ([5]; 50 μg/mL) was 169.93 nmol O2/g/min and the “R1 (mycelial oxygen uptake post addition of fungicide)” value ([5]; 100 μg/mL) was 143.48 nmol O2/g/min. The inhibition at 50 µg/mL ([5]; 50 μg/mL) was 2.15%, the inhibition at 100 µg/mL ([5]; 100 μg/mL) was 17.4% and the “EC50 against B. cinerea” value (B. cinerea) was 2.12 µg/mL (≈ 5.96 µM). The Carcinogenesis (carcinogenesis test) was “Negative”, the “Control Effect” value [6, 8] was 81.36% and the Mutagenesis (mutagenesis test) was “Negative”. The “Control Effect” value [7, 8] was 78.27%, the “electrolyte leakage compared with positive control” value (B. cinerea mycelia) was “more significant electrolyte leakage from hyphae than procymidone” and the “conductivity of mycelia suspension compared with control mycelia” value (B. cinerea mycelia) was “greatly increased”.
In the case of `COC(=O)Nc1nc2ccccc2[nH]1` [carbendazim, reference compound], the “Control Effect” value ([6]; dilution multiple 500, 750 g.ai ha^−1) is reported as 29.00%.
With `CC(C)NC(=O)N1CC(=O)N(c2cc(Cl)cc(Cl)c2)C1=O` [iprodione, reference compound] the “Control Effect” value ([7]; dilution multiple 1000, 375 g.ai ha^−1) was 2.36%.
In the case of `CCOc1ccc(NC(=O)OC(C)C)cc1OCC` [diethofencarb, reference compound], the “Control Effect” value ([1]; dilution multiple 1400, 267.9 g.ai ha^−1) is reported as 76.36%.
In the case of `C[C@@]1(c2ccc(Oc3ccccc3)cc2)OC(=O)N(Nc2ccccc2)C1=O` (racemic) [Famoxadone, famoxadone, reference compound], the “R1 (mycelial oxygen uptake post addition of fungicide)” value ([5]; 50 μg/mL) is reported as 115.99 nmol O2/g/min, the “R1 (mycelial oxygen uptake post addition of fungicide)” value ([5]; 100 μg/mL) is reported as 68.79 nmol O2/g/min and the inhibition at 50 µg/mL ([5]; 50 μg/mL) is reported as 33.2%. It also gave an inhibition at 100 µg/mL ([5]; 100 μg/mL) of 60.4%.

Reference: paper PMC8836143, “Primary Mode of Action of the Novel Sulfonamide Fungicide against Botrytis cinerea and Field Control Effect on Tomato Gray Mold” (International Journal of Molecular Sciences, 2022)
